Three compounds from patent US8138158B2, “Compositions and methods for therapy for diseases characterized by defective chloride transport” (Children's Hospital & Research Center at Oakland, priority 1997, dated 2012) can be followed below.

Experiment [1] deals with CF15 monolayers homozygous for ΔF508 CFTR. Nature of the experiment: Short-circuit current across CF15 monolayers homozygous for ΔF508 CFTR. Type of experiment: cell-based, human. Conditions: D-isoascorbate 300 μm. As to the method: (§1) Human airway cell culture. The human submucosal serous gland-like cell line Calu-3, the CF nasal epithelial cell line homozygous for ΔF508 CFTR (CF15) and human tracheal primary cultures (hTE) were cultured as described (Jefferson, D. M., Valentich, J. D., Marini, F. C., Grubman, S. A., Iannuzzi, M. C., Dorkin, H. L., Li, M., Klinger, K. W. & Welsh, M. J. (1990) Am. J. Physiol. 259, L496-L505. Sachs, L. A., Finkbeiner, W. E. & Widdicombe, J. H. (2003) In Vitro Cell Dev. Biol. Anim. 39, 56-62.). Wildtype CFTR-corrected CF15 cells were generated via adenovirus-mediated gene transfer. Growth media were nominally free of ascorbic acid (<10 μm, University Pathology Inc., Salt Lake City, Utah). For transepithelial measurements cells were grown on permeable filter inserts and used after 3 to 10 days.
(§2) Short-circuit current measurement. Calu-3 or CF15 cells were grown as monolayers, mounted in Ussing chambers and short-circuit current (ISC) was recorded as described (Illek, B. & Fischer, H. (1998) Am. J. Physiol. 275, L902-L910). At 20-50 second intervals, transepithelial voltage was clamped from zero to 2 mV and the transepithelial resistance (Rte) was calculated. A serosa-to-mucosa-directed Cl gradient was applied. Serosal Ussing chamber solution contained (in mM): 120 NaCl, 20 NaHCO3, 5 KHCO3, 1.2 NaH2PO4, 5.6 glucose, 2.5 CaCl2, 1.2 MgCl2. In mucosal Ussing chamber solutions, all Cl salts were exchanged for gluconate salts.
The CF15 cell line was used to determine whether ascorbate-stimulated Cl currents were solely mediated by the CFTR Cl conductance. The CF15 cell line is characterized by the absence of functional CFTR in the apical plasma membrane but the presence of other non-CFTR Cl conductances (Jefferson, D. M., Valentich, J. D., Marini, F. C., Grubman, S. A., Iannuzzi, M. C., Dorkin, H. L., Li, M., Klinger, K. W. & Welsh, M. J. (1990) Am. J. Physiol. 259, L496-L505). A concentration of L-ascorbic acid that lay within the upper plateau of the dose response curve (500 μm) was applied and ascorbate-stimulated Cl currents in CF15 vs. wildtype CFTR-corrected CF15 monolayers was compared (FIG. 23A). […] The defective response to L-ascorbic acid was reversed in wildtype CFTR-corrected CF15 epithelia such that ISC responded promptly to L-ascorbic acid (ΔISC=7.5±0.5 μA/cm^2, n=6). The ascorbate-stimulated current was further activated by the cAMP agonist forskolin and total stimulated ISC averaged 12.1±1.1 μA/cm^2 (FIG. 4B). The ascorbate-stimulated Cl current reached 60±15% of the forskolin-stimulated current in CFTR-corrected CF15 monolayers, which was close to the corresponding findings in Calu-3 monolayers (68%, see FIG. 21A). […]
In this example, chloride currents stimulated by L-ascorbate or D-ascorbate were measured in CF15 versus. wildtype CFTR-corrected CF15 monolayers. A concentration of L-ascorbate (1 mM) or D-isoascorbate (300 μm) that lay within the upper plateau of the dose-response curve was applied to cells and the resulting chloride currents stimulated in CF15 versus wildtype CFTR-corrected CF15 monolayers were measured (FIG. 25 A-H). […]
The functional activation of ΔF508 CFTR was determined after correction of the underlying trafficking defect of ΔF508 CFTR using S-Nitrosoglutathione (Zaman, et al., Biochem Biophys Res Commun 284: 65-70, 2001; Snyder, et al., American Journal of Respiratory and Critical Care Medicine 165: 922-6, 2002; Andersson, et al. Biochemical and Biophysical Research Communication 297(3): 552-557, 2002.). […]

The subject of experiment [2] is wildtype CFTR-corrected CF15 monolayers. Nature of the experiment: Short-circuit current across wildtype CFTR-corrected CF15 monolayers. It counts as cell-based, human. Conditions: D-isoascorbate 300 μm; amiloride; n=2. As to the method: as §1, §2
The CF15 cell line was used to determine whether ascorbate-stimulated Cl currents were solely mediated by the CFTR Cl conductance. The CF15 cell line is characterized by the absence of functional CFTR in the apical plasma membrane but the presence of other non-CFTR Cl conductances (Jefferson, D. M., Valentich, J. D., Marini, F. C., Grubman, S. A., Iannuzzi, M. C., Dorkin, H. L., Li, M., Klinger, K. W. & Welsh, M. J. (1990) Am. J. Physiol. 259, L496-L505). A concentration of L-ascorbic acid that lay within the upper plateau of the dose response curve (500 μm) was applied and ascorbate-stimulated Cl currents in CF15 vs. wildtype CFTR-corrected CF15 monolayers was compared (FIG. 23A). […] The defective response to L-ascorbic acid was reversed in wildtype CFTR-corrected CF15 epithelia such that ISC responded promptly to L-ascorbic acid (ΔISC=7.5±0.5 μA/cm^2, n=6). The ascorbate-stimulated current was further activated by the cAMP agonist forskolin and total stimulated ISC averaged 12.1±1.1 μA/cm^2 (FIG. 4B). The ascorbate-stimulated Cl current reached 60±15% of the forskolin-stimulated current in CFTR-corrected CF15 monolayers, which was close to the corresponding findings in Calu-3 monolayers (68%, see FIG. 21A). The absence of ascorbate-stimulated Cl currents in CF15 monolayers supports the notion that non-CFTR Cl conductances were not activated by L-ascorbic acid.
In this example, chloride currents stimulated by L-ascorbate or D-ascorbate were measured in CF15 versus. wildtype CFTR-corrected CF15 monolayers. A concentration of L-ascorbate (1 mM) or D-isoascorbate (300 μm) that lay within the upper plateau of the dose-response curve was applied to cells and the resulting chloride currents stimulated in CF15 versus wildtype CFTR-corrected CF15 monolayers were measured (FIG. 25 A-H). All experiments were performed in the presence of the sodium channel blocker amiloride. […]

Experiment [3] has as its target T1, ΔF508 CFTR (Mus musculus, UniProt P26361, DEL508-508).
T1 construct: from tissue; host or cells: rectal mucosa of living ΔF508 CF mice (C57Bl6/J), TMAO-treated or water-injected
Put plainly: Rectal potential difference (RPD) in mice homozygous for ΔF508 CFTR. Type of experiment: in vivo. The source says: CF mice and rectal potential difference (RPD) measurements. Gene-targeted mice homozygous for the ΔF508 mutation (C57Bl6/J) received Golytely® (Braintree Laboratories, Inc.), a diarrhetic supplement, in the drinking water to increase their lifespan (Clarke, L. L., Gawenis, L. R., Franklin, C. L. & Harline, M. C. (1996) Lab. Anim. Sci. 46, 612-8). To correct the maturation defect of ΔF508 CFTR we used the chemical chaperone trimethylamine oxide (TMAO) (Brown, C. R., Hong-Brown, L. Q., Biwersi, J., Verkman, A. S. & Welch, W. J. (1996) Cell Stress Chaperones 1, 117-25). CF mice were injected with 4 mg/g TMAO from a 4 M stock solution every 8 hours for 24 hours, which is a regimen to partially correct the ΔF508 defect in CF mice (Fischer, H., Barbry, P., Illek, B., Sartori, C., Fukuda, N. & Matthay, M. A. (2001) Am. J. Physiol. 281, L52-L57). Controls were water-injected. The RPD assay was performed on mice that were anesthetized with 0.1 mg/g body weight ketamine and 0.01 mg/g body weight azepromazine. RPD was sensed with a 1 M NaCl agar bridge inserted ˜1 cm into the rectum vs. a subcutaneous needle filled with 1 M NaCl. Measurements were performed in Cl free solution containing 100 μm amiloride and 5 mM Ba(OH)2 to isolate the Cl-selective RPD.
In this Example, it was determined whether L-ascorbic acid affected the functional activation of ΔF508 CFTR in a CF-affected organism in vivo. Using gene-targeted mice homozygous for the ΔF508 mutation it was shown previously that the osmolyte trimethylamine oxide (TMAO) effectively supported ΔF508 CFTR trafficking in vivo (Fischer, H., Barbry, P., Illek, B., Sartori, C., Fukuda, N. & Matthay, M. A. (2001) Am. J. Physiol. 281, L52-L57). Accordingly, the effect of L-ascorbic acid was tested in homozygous ΔF508 CF mice treated with TMAO by using the RPD assay as a functional end point measure for mutant ΔF508-CFTR function. FIG. 24A illustrates that TMAO-treated CF mice manifested a detectable response to a maximal dose of L-ascorbic acid (1 mM) or its epimer D-isoascorbic acid (300 μM) and RPD hyperpolarized on average by −3.2±0.8 mV (n=4) and −3.6±1.8 mV (n=3), respectively (FIG. 24B).

The test system of experiment [4] is Calu-3 cell monolayer. Put plainly: Short-circuit current across α-toxin-permeabilized Calu-3 cell monolayer in Ussing chamber. Type of experiment: cell-based, human. Conditions: tissue first stimulated with forskolin 10 μM; biochanin A 100 and 300 μM. The source says: Within one in vitro assay, the level of chloride transport may be evaluated using mammalian pulmonary cell lines, such as Calu-3 cells, or primary human, rat, mouse and bovine tracheal and alveolar cell cultures, as well as intestinal epithelial cell lines, such as T84, HT-29, Caco-2 and cell lines of other epithelial origin such as MDCK and FRT. In general, such assays employ cell monolayers, which may be prepared by standard cell culture techniques. Within such systems, CFTR-mediated chloride current may be monitored in an Ussing chamber using intact epithelia. Anion efflux assays may be used to detect CFTR-mediated transport (e.g., iodide efflux, see for example RNA. 2003 October; 9(10): 1290-7). Additionally, chloride transport (or generally airway surface liquid composition), can be evaluated using any number of indicators such as described in J Gen Physiol. 2003 November; 122(5): 511-9. Alternatively, chloride transport may be evaluated using epithelial tissue in which the basolateral membrane is permeabilized with anion-selective ionophores such as nystatin, amphotericin B or Staphylococcus aureus α-toxin, and in which a chloride gradient is imposed across the apical membrane (see Illek et al., Am. J. Physiol. 270:C265-75, 1996). In either system, chloride transport is evaluated in the presence and absence of a test compound (i.e., a flavone or isoflavone, or ascorbate or derivative thereof), and those compounds that stimulate chloride transport as described above may be used within the methods provided herein.
A Calu-3 cell monolayer was prepared in an Ussing chamber as described by Illek et al., Am. J. Physiol. 270:C265-275, 1996. […]
To evaluate the effect of biochanin A, a Calu-3 cell monolayer was prepared and permeabilized as described above. […] The effect of biochanin A (Bio, 100 and 300 μM) on short-circuit current (ISC) across the Calu-3 monolayer was evaluated in an Ussing chamber.

Experiment [5] concerns Calu-3 monolayers. Put plainly: Transepithelial chloride currents in forskolin-prestimulated Calu-3 monolayers. It counts as cell-based, human. Conditions: prestimulated with 10 μM forskolin; compound at 100 μM. The protocol: FIGS. 13A-13C illustrate the effect of additional representative flavonoids and isoflavonoids on chloride current in epithelial cells. FIG. 13A is a graph showing the stimulation of transepithelial chloride currents by reservatrol (100 μM), flavanone (100 μM), flavone (200 μM), apigenin (20 μM), apigenin 7-O-neohesperidoside (30 μM), kaempferol (20 μM), fisetin (100 μM), quercetin (30 μM), rutin (30 μM), genistein (30 μM), daidzein (50 μM), biochanin A (100 μM) and prunetin (100 μM) in Calu-3 monolayers. Experiments were performed in the presence of 10 μM forskolin. Stimulated currents are plotted relative to forskolin stimulated increase (forskolin stimulated currents are 100%). FIG. 13B is a recording showing the effect of 7,4′-dihydroxyflavone on chloride current in unstimulated tissue. […] Increasing concentrations of 7,4′-dihydroxyflavone (as indicated in μM) were added to mucosal side and dose-dependently stimulated chloride currents. Currents were recorded with a serosal-to-mucosal chloride gradient at 0 mV and pulses were obtained at 2 mV. FIG. 13C is a recording illustrating the effect of trimethoxy-apigenin. […] Increasing concentrations of trimethoxy-apigenin (as indicated in μM) were added to mucosal side and dose-dependently stimulated chloride currents. Experiment was performed on unstimulated tissue. Currents were recorded with a serosal-to-mucosal chloride gradient at 0 mV and pulses were obtained at 2 mV.
Airway epithelial cells were prestimulated with 10 μM forskolin. The percent increase in chloride current was then determined following treatment with a series of polyphenolic compounds. FIG. 13A summarizes the stimulatory effect of these compounds.

T1 sequence (P26361 with tags, fused parts or gaps DEL508-508): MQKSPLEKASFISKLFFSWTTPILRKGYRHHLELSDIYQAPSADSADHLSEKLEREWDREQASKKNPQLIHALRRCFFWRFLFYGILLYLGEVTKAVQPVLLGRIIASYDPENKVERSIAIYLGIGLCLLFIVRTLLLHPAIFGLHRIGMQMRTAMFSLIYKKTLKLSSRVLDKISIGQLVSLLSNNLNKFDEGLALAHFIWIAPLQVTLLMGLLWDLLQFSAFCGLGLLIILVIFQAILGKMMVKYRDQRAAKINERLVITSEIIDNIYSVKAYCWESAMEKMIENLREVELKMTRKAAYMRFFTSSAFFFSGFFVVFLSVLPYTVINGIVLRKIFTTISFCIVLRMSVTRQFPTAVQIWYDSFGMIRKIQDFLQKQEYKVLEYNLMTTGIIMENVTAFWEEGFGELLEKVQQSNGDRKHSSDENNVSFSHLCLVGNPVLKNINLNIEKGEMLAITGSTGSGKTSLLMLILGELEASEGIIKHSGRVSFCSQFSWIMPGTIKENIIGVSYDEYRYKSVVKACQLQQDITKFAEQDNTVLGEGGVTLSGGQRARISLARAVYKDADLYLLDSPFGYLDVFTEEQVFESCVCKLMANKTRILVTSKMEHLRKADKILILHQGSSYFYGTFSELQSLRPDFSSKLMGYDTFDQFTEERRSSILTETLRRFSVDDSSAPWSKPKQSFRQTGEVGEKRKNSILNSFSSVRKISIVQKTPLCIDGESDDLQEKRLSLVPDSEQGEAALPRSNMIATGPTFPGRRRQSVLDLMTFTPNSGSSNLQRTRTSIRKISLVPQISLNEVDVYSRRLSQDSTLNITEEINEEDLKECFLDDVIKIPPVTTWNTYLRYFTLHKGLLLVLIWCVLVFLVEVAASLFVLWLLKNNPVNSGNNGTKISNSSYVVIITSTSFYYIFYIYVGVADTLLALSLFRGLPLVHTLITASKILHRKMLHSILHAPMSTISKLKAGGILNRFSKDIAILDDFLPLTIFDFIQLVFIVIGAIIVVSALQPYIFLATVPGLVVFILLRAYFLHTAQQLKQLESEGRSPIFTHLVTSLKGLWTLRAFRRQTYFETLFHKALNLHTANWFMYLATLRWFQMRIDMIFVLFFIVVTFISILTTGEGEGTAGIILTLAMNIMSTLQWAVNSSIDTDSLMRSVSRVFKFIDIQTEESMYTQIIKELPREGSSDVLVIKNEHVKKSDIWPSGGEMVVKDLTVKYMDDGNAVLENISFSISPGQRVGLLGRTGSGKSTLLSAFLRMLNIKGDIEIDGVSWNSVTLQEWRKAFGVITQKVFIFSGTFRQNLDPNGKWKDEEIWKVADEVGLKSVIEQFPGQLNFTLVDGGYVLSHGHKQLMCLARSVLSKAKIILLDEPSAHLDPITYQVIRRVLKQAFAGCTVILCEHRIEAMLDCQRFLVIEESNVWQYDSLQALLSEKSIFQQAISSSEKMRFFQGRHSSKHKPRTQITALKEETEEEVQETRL

As to `O=C1O[C@H]([C@H](O)CO)C(O)=C1O` [D-isoascorbic acid], the “transepithelial chloride currents increased on average by” value in experiment [1] (CF15 treated with 1 mM SNOG for 5-24 hours, n=8) was 3.1±0.5. The ΔIsc in experiment [1] (untreated CF epithelia, amiloride, n=7) amounted to 0.7±1.0 μA/cm^2; in experiment [2], 6.6±1.7 μA/cm^2. Further, in experiment [3] (CF mice treated with 4 mg/g TMAO for 24 hours, D-isoascorbic acid 300 μM, n=3), the “RPD hyperpolarized on average by” value is listed as −3.6±1.8 mV. The ΔRPD in experiment [3] (water-injected control CF mice, L-ascorbic acid or D-isoascorbic acid, n=9) was −1.1±0.4 mV.

In the case of `C[N+](C)(C)[O-]` [TMAO, trimethylamine oxide, reference compound], in experiment [3] (TMAO 4 mg/g every 8 hours for 24 hours), the “increase of ascorbate- and isoascorbate-stimulated RPD compared to untreated CF mice” value is given as “approximately 3 fold”.

For `COc1ccc(-c2coc3cc(O)cc(O)c3c2=O)cc1` [biochanin A, 4′-methoxy-5,7-dihydroxyisoflavone], in experiment [4], the “short-circuit current (ISC), chloride secretion” value is listed as “further stimulated chloride secretion”. In experiment [5], the “chloride currents further stimulated to (forskolin stimulated currents are 100%)” value is listed as 139%.
